One compound from patent US20240182457A1, “OXADIAZOLE-SUBSTITUTED SPIROCYCLIC COMPOUND AND APPLICATION THEREOF” (HELIOEAST PHARMACEUTICAL CO., LTD., priority 2021, published 2024) can be followed below.

Structures are written as SMILES.

In this assay the target is T1, S1PR1 (Homo sapiens, UniProt P21453).
T1 construct: expressed in transfected cells
Put plainly: In vitro agonist activity on S1PR1 (PathHunter cell line, chemiluminescence). Format: cell-based. The method, then: Test example 1: Evaluating the in vitro agonist activity of the compound of the present disclosure on S1PR1
Experimental purpose: To assess the agonist activity of the compound on S1PR1
I. Cell Treatment • 1. The PathHunter cell line was thawed according to standard procedures. • 2. The cells were seeded in a 384-well plate with a volume of 20 μL, and incubated at 37° C. for an appropriate duration.
II. Agonist • 1. For the agonist evaluation, the cells were co-cultured with the test samples to induce a reaction. • 2. The test stock solution was diluted 5-fold using the buffer. • 3. 5 μL of the 5-fold diluted solution was added to the cells, and incubated at 37° C. for 90 to 180 minutes. The vehicle concentration was maintained at 1%.
III. Signal Detection • 1. Either 12.5 μL or 15 μL of the PathHunter detection reagent (at a 50% v/v ratio) was added each time, followed by a 1-hour incubation at room temperature to allow for detection signal generation. • 2. Chemiluminescence signal detection was conducted using a PerkinElmer Envision™ microplate reader.
IV. Data Analysis • 1. The activity of the compound was analyzed using the CBIS suite for data analysis (ChemInnovation, CA). • 2. Formula for calculation:
% Activity=100%× (Average sample RLU—Average vehicle RLU)/(Average maximum control ligand RLU—Average vehicle RLU)

T1 sequence (P21453 whole entry): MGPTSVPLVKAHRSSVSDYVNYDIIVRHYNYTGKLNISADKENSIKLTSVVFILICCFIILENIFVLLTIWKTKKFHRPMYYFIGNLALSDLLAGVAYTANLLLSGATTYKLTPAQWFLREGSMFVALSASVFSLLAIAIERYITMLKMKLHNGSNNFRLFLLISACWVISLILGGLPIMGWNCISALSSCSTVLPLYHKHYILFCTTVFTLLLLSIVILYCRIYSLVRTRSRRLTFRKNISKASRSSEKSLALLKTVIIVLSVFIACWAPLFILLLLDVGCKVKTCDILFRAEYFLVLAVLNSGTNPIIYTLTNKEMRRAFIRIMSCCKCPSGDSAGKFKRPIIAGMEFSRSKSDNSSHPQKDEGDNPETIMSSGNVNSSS

As to `CC(C)Oc1cc(-c2nc(-c3cccc4c3CCC43CCN(C(C)(C)CO)C3)no2)ccc1C#N` (centres unmarked) [Compound 1], under “% Activity relative to maximum control ligand”, the Emax is 110%. This compound had a 50% effective concentration (EC50) (incubated at 37° C. for 90 to 180 minutes) of 0.657 nM.

A word on the Emax: it is the greatest response seen or fitted, relative to the assay's reference. By EC50 is commonly meant the midpoint of the concentration-response curve.
